According to ChEMBL document CHEMBL1201862, “PubChem BioAssay data set” (2004):
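These data come from cells grown in 96-well plates and exposed to compound for 48 hours at five concentrations. GI50 = concentration required for 50% inhibition of growth.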 Active and inactive are the calls of the source. No stated cut-off is given here; in the data, active = GI50 up to about 1.1 µM and inactive = higher.

How the values were obtained:
Test in all cases: DTP human tumour cell line panel, 48 h
M14 = tested on: M14
OVCAR-5 = tested on: OVCAR-5
NCI-H460 = tested on: NCI-H460
DMS-273 = tested on: DMS-273
IGROV-1 = tested on: IGROV-1
U-251 = tested on: U-251
SN12C = tested on: SN12C
SF-268 = tested on: SF-268
CCRF-CEM = tested on: CCRF-CEM
HT-29 = tested on: HT-29
RXF 393 = tested on: RXF 393
HOP-92 = tested on: HOP-92
NCI-H522 = tested on: NCI-H522
HCC 2998 = tested on: HCC 2998
PC-3 = tested on: PC-3
MDA-MB-435 = tested on: MDA-MB-435
T47D = tested on: T47D
DU-145 = tested on: DU-145
HCT-15 = tested on: HCT-15
RPMI-8226 = tested on: RPMI-8226

Structure (SMILES) | GI50 (M14) | GI50 (OVCAR-5) | GI50 (NCI-H460) | GI50 (DMS-273) | GI50 (IGROV-1) | GI50 (U-251) | GI50 (SN12C) | GI50 (SF-268) | GI50 (CCRF-CEM) | GI50 (HT-29) | GI50 (RXF 393) | GI50 (HOP-92) | GI50 (NCI-H522) | GI50 (HCC 2998) | GI50 (PC-3) | GI50 (MDA-MB-435) | GI50 (T47D) | GI50 (DU-145) | GI50 (HCT-15) [µM] | GI50 (RPMI-8226)
CC(=O)CNC(=O)OC(C)(C)C | > 100 µM (inactive) | > 100 µM (inactive) | > 100 µM (inactive) | > 100 µM (inactive) | > 100 µM (inactive) | > 100 µM (inactive) | > 100 µM (inactive) | > 100 µM (inactive) | > 100 µM (inactive) | > 100 µM (inactive) | > 100 µM (inactive) | > 100 µM (inactive) | > 100 µM (inactive) | – | – | – | – | – | – | –
COC(=O)C(Cc1ccccc1)C(=O)NC(CNC(=O)OCc1ccccc1)C(=O)OCc1ccccc1 (stereo unspecified) | 15.3 µM (inactive) | > 100 µM (inactive) | 42.1 µM (inactive) | – | 65.6 µM (inactive) | 49.1 µM (inactive) | 49.8 µM (inactive) | 44.8 µM (inactive) | 14.7 µM (inactive) | 29.3 µM (inactive) | 21.8 µM (inactive) | 32.1 µM (inactive) | 26.7 µM (inactive) | 30.8 µM (inactive) | 38.2 µM (inactive) | 21.8 µM (inactive) | 36.1 µM (inactive) | 66.5 µM (inactive) | 45.7 | 21.4 µM (inactive)
OC(c1ccccc1)c1c(-c2ccccc2)oc(-c2ccccc2)c1C(O)c1ccccc1 (stereo unspecified) | 10 µM (inactive) | 15.6 µM (inactive) | 8.15 µM (inactive) | – | 14 µM (inactive) | 14 µM (inactive) | 6.22 µM (inactive) | 12 µM (inactive) | 3.73 µM (inactive) | 11.1 µM (inactive) | 6.5 µM (inactive) | 13.4 µM (inactive) | 3.15 µM (inactive) | 16.8 µM (inactive) | 9.33 µM (inactive) | 8.04 µM (inactive) | 6.28 µM (inactive) | 13.7 µM (inactive) | 12.1 | 2.72 µM (inactive)
O=c1[nH]c(C23CC4CC(CC(C4)C2)C3)cc2c1c(=O)oc1ccccc12 | 8.65 µM (inactive) | 4.82 µM (inactive) | 2.62 µM (inactive) | – | 2.32 µM (inactive) | 2.53 µM (inactive) | 9.18 µM (inactive) | 0.944 µM (active) | 12.5 µM (inactive) | 3.52 µM (inactive) | 2.35 µM (inactive) | 1.04 µM (active) | 2.58 µM (inactive) | 5.31 µM (inactive) | 3.27 µM (inactive) | 13.4 µM (inactive) | 8.89 µM (inactive) | 6.31 µM (inactive) | 13.8 | 3.08 µM (inactive)
COC(=O)C1=C(C)N(NC(N)=O)C2(N)N(NC(N)=O)C(C)=C(C(=O)OC)C12C(=O)OC (stereo unspecified) | > 100 µM (inactive) | > 100 µM (inactive) | > 100 µM (inactive) | > 100 µM (inactive) | > 100 µM (inactive) | > 100 µM (inactive) | > 100 µM (inactive) | > 100 µM (inactive) | > 100 µM (inactive) | > 100 µM (inactive) | – | > 100 µM (inactive) | > 100 µM (inactive) | > 100 µM (inactive) | – | – | – | – | > 100 | > 100 µM (inactive)
Nn1c(SCC(=O)O)nc2ccccc2c1=O | > 100 µM (inactive) | > 100 µM (inactive) | > 100 µM (inactive) | – | > 100 µM (inactive) | > 100 µM (inactive) | > 100 µM (inactive) | > 100 µM (inactive) | > 100 µM (inactive) | > 100 µM (inactive) | > 100 µM (inactive) | > 100 µM (inactive) | > 100 µM (inactive) | > 100 µM (inactive) | > 100 µM (inactive) | > 100 µM (inactive) | > 100 µM (inactive) | > 100 µM (inactive) | > 100 | > 100 µM (inactive)
CC(=O)Oc1ccc2c(c1)CC[C@@H]1C2[C@@H](O[N+](=O)[O-])C[C@@]2(C)C1CC[C@@H]2O[N+](=O)[O-] (stereo partly specified) | 14 µM (inactive) | 19.4 µM (inactive) | 12.8 µM (inactive) | – | 15.1 µM (inactive) | 14 µM (inactive) | 15.5 µM (inactive) | 13.3 µM (inactive) | 9.1 µM (inactive) | 16.4 µM (inactive) | 11.5 µM (inactive) | 10.1 µM (inactive) | 11.1 µM (inactive) | 1.63 µM (inactive) | 10.5 µM (inactive) | 15.5 µM (inactive) | 6.97 µM (inactive) | 14.2 µM (inactive) | 13.3 | 7.41 µM (inactive)
Nc1nc2ncn(CC(O)CO)c2c(=S)[nH]1 (stereo unspecified) | > 100 µM (inactive) | > 100 µM (inactive) | > 100 µM (inactive) | > 100 µM (inactive) | > 100 µM (inactive) | > 100 µM (inactive) | > 100 µM (inactive) | > 100 µM (inactive) | > 100 µM (inactive) | > 100 µM (inactive) | > 100 µM (inactive) | > 100 µM (inactive) | > 100 µM (inactive) | – | – | – | – | – | > 100 | > 100 µM (inactive)
c1ccc(SC23C4C5C6C4C2C6C53)nc1 (stereo unspecified) | > 100 µM (inactive) | > 100 µM (inactive) | > 100 µM (inactive) | > 100 µM (inactive) | > 100 µM (inactive) | > 100 µM (inactive) | > 100 µM (inactive) | > 31.6 µM (inactive) | > 100 µM (inactive) | > 100 µM (inactive) | – | > 100 µM (inactive) | > 100 µM (inactive) | > 100 µM (inactive) | – | – | – | – | > 100 | > 39.5 µM (inactive)
O=C(CC(=O)c1cccc2ccccc12)C(=O)NC1C2CC3CC(C2)CC1C3 (stereo unspecified) | > 100 µM (inactive) | > 100 µM (inactive) | > 100 µM (inactive) | > 100 µM (inactive) | > 100 µM (inactive) | > 100 µM (inactive) | > 100 µM (inactive) | > 100 µM (inactive) | > 100 µM (inactive) | > 100 µM (inactive) | – | 34.4 µM (inactive) | > 100 µM (inactive) | > 100 µM (inactive) | – | – | – | – | > 100 | > 100 µM (inactive)
C=C1C(=O)OC2CC(C)C3CC(O)OC(OCC)C3(C)CC12 (stereo unspecified) | 14.8 µM (inactive) | 20.2 µM (inactive) | 18.6 µM (inactive) | – | 19.3 µM (inactive) | 17.1 µM (inactive) | 15.8 µM (inactive) | 18 µM (inactive) | 6.46 µM (inactive) | 17.8 µM (inactive) | 14.8 µM (inactive) | 16 µM (inactive) | 7.03 µM (inactive) | 16.8 µM (inactive) | 19.9 µM (inactive) | 18 µM (inactive) | 16.6 µM (inactive) | 33.6 µM (inactive) | 8.38 | 11.4 µM (inactive)
Cc1ccc(C2(O)CC(c3ccc([N+](=O)[O-])o3)=NN2C(=O)COc2ccc(Cl)cc2)cc1 (stereo unspecified) | 4.93 µM (inactive) | 37.2 µM (inactive) | 6.3 µM (inactive) | 6.32 µM (inactive) | 11.4 µM (inactive) | 2.28 µM (inactive) | 5.18 µM (inactive) | 5.85 µM (inactive) | – | 5.47 µM (inactive) | – | 7.93 µM (inactive) | 9.04 µM (inactive) | 6 µM (inactive) | – | – | – | – | 3.1 | 2.24 µM (inactive)
C1=CC(N(c2ccccc2)C2C=CCCC2)CCC1 (stereo unspecified) | > 100 µM (inactive) | – | > 100 µM (inactive) | > 100 µM (inactive) | > 100 µM (inactive) | > 100 µM (inactive) | > 100 µM (inactive) | > 100 µM (inactive) | > 100 µM (inactive) | > 100 µM (inactive) | 48.6 µM (inactive) | 35.8 µM (inactive) | 67 µM (inactive) | – | – | – | – | – | > 100 | 32.4 µM (inactive)
O=C1Nc2ccccc2C12CCNC2Cc1ccccc1 (stereo unspecified) | > 100 µM (inactive) | > 100 µM (inactive) | > 100 µM (inactive) | > 100 µM (inactive) | > 100 µM (inactive) | > 100 µM (inactive) | – | > 100 µM (inactive) | > 100 µM (inactive) | > 100 µM (inactive) | – | 76.6 µM (inactive) | – | > 100 µM (inactive) | – | – | – | – | > 100 | > 100 µM (inactive)
COc1ccc(C2S/C(=C\c3ccc([N+](=O)[O-])cc3)C(=O)N2NC(=O)Cc2ccccc2)cc1 (stereo unspecified) | > 100 µM (inactive) | > 100 µM (inactive) | > 100 µM (inactive) | > 100 µM (inactive) | > 100 µM (inactive) | 79.3 µM (inactive) | > 100 µM (inactive) | > 100 µM (inactive) | 82.8 µM (inactive) | > 100 µM (inactive) | 25.6 µM (inactive) | > 100 µM (inactive) | > 100 µM (inactive) | – | – | – | – | – | 79.8 | > 100 µM (inactive)
CC(=O)OCC1=C(C)C[C@H]([C@@H](COC(C)=O)C2CCC3C4C[C@H]5O[C@]56CC=CC(=O)[C@]6(C)C4CC[C@@]32C)OC1=O (stereo partly specified) | 0.188 µM (active) | 1.23 µM (inactive) | 0.929 µM (active) | – | 0.184 µM (active) | 0.329 µM (active) | 0.444 µM (active) | 0.379 µM (active) | 0.0191 µM (active) | 0.123 µM (active) | 0.369 µM (active) | 0.352 µM (active) | 0.134 µM (active) | 0.573 µM (active) | 0.417 µM (active) | 0.153 µM (active) | 0.353 µM (active) | 0.414 µM (active) | 0.083 | 0.0393 µM (active)
CCCCc1ccc(Nc2nc(SC)c3[nH]cnc3n2)cc1 | > 100 µM (inactive) | > 100 µM (inactive) | 13.9 µM (inactive) | – | 24.7 µM (inactive) | 26.2 µM (inactive) | > 84.9 µM (inactive) | 65.5 µM (inactive) | 6.19 µM (inactive) | 15.8 µM (inactive) | 28.2 µM (inactive) | 15.5 µM (inactive) | 20.6 µM (inactive) | > 80.4 µM (inactive) | > 100 µM (inactive) | 5.33 µM (inactive) | > 100 µM (inactive) | > 100 µM (inactive) | > 32.9 | > 56 µM (inactive)
